Reference: PubChem BioAssay (NCI)
Where “and” joins values, the source holds several entries; their conditions need not be identical. Equal values may be shown once.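 Five concentrations, 48 hours, 96-well plates. Here, GI50 denotes the concentration required for 50% inhibition of growth. TGI denotes the concentration required for complete inhibition of growth.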

Columns and labels:
Test in all cases: NCI anticancer screen, dose series, 48 h; in the data active = GI50 below about 0.43 µM; inactive = the rest
COLO 205 colon = test system: COLO 205 colon
SK-OV-3 ovarian = test system: SK-OV-3 ovarian
HOP-62 NSCLC = test system: HOP-62 NSCLC
SK-MEL-5 melanoma = test system: SK-MEL-5 melanoma
OVCAR-4 ovarian = test system: OVCAR-4 ovarian
UO-31 renal = test system: UO-31 renal
SF-268 CNS = test system: SF-268 CNS
SF-295 CNS = test system: SF-295 CNS
A498 renal = test system: A498 renal
NCI/ADR-RES ovarian = test system: NCI/ADR-RES ovarian

COC(=O)C(C(=O)c1ccccc1)C(C(=O)C(=O)Nc1ccc(OC)cc1OC)C(=O)C(=O)c1ccc(C)cc1 (stereo not given)
> 100 µM: TGI (COLO 205 colon) | TGI (SK-OV-3 ovarian) | TGI (HOP-62 NSCLC) | TGI (SK-MEL-5 melanoma) | TGI (OVCAR-4 ovarian) | TGI (UO-31 renal) | TGI (SF-268 CNS) | TGI (SF-295 CNS) | TGI (A498 renal)

c1ccc2cc(-c3cc4ccccc4s3)ccc2c1
> 100 µM: TGI (COLO 205 colon) | TGI (SK-OV-3 ovarian) | TGI (HOP-62 NSCLC) | TGI (SK-MEL-5 melanoma) | TGI (OVCAR-4 ovarian) | TGI (UO-31 renal) | TGI (SF-268 CNS) | TGI (SF-295 CNS) | TGI (A498 renal)

CC(C)CCC1CC2C(=O)N(c3ccccc3)C(=O)C2c2[nH]c3ccccc3c21 (stereo not given)
20.7 µM: TGI (OVCAR-4 ovarian)
18.9 µM: TGI (UO-31 renal)
2.86 µM: TGI (SF-295 CNS)
32.2 µM: TGI (SK-OV-3 ovarian)
16 µM: TGI (A498 renal)
7.08 µM: TGI (COLO 205 colon)
13 µM: TGI (SK-MEL-5 melanoma)
13.5 µM: TGI (SF-268 CNS)

CC1=C(C(=O)Nc2ccc(F)c(Cl)c2)C(c2ccccc2O)NC(=S)N1 (stereo not given)
> 50 µM: TGI (COLO 205 colon) | TGI (SK-OV-3 ovarian) | TGI (HOP-62 NSCLC) | TGI (NCI/ADR-RES ovarian) | TGI (SK-MEL-5 melanoma) | TGI (UO-31 renal) | TGI (SF-268 CNS) | TGI (SF-295 CNS)
inactive: GI50 (COLO 205 colon) > 50 µM | GI50 (SK-OV-3 ovarian) > 50 µM | GI50 (HOP-62 NSCLC) > 50 µM | GI50 (NCI/ADR-RES ovarian) > 50 µM | GI50 (SK-MEL-5 melanoma) 21.9 µM | GI50 (UO-31 renal) > 50 µM | GI50 (SF-268 CNS) 9.43 µM | GI50 (SF-295 CNS) 35.4 µM

O=[N+]([O-])c1cccc(C2=NN(c3ccccc3)C[N+](c3ccc(Br)cc3)=N2)c1
> 100 µM: TGI (COLO 205 colon) | TGI (SK-OV-3 ovarian) | TGI (HOP-62 NSCLC) | TGI (SK-MEL-5 melanoma) | TGI (OVCAR-4 ovarian) | TGI (UO-31 renal) | TGI (SF-268 CNS) | TGI (SF-295 CNS) | TGI (A498 renal)

O=C(/C=C/c1ccccc1)CCC1C(=O)c2ccccc2C1=O
> 100 µM: TGI (COLO 205 colon) | TGI (SK-OV-3 ovarian) | TGI (NCI/ADR-RES ovarian) | TGI (SK-MEL-5 melanoma) | TGI (OVCAR-4 ovarian) | TGI (UO-31 renal) | TGI (SF-268 CNS) | TGI (SF-295 CNS) | TGI (A498 renal)

O=C(Nc1ccn(CCO)c(=O)n1)c1ccccc1
> 100 µM: TGI (COLO 205 colon) | TGI (SK-OV-3 ovarian) | TGI (HOP-62 NSCLC) | TGI (SK-MEL-5 melanoma) | TGI (OVCAR-4 ovarian) | TGI (UO-31 renal) | TGI (SF-268 CNS) | TGI (SF-295 CNS) | TGI (A498 renal)

CCCCCCCCCCCCCC(=O)OCC(C[As](=O)(O)O)OC(=O)CCCCCCCCCCCCC (stereo not given)
> 100 µM: TGI (SK-OV-3 ovarian) | TGI (HOP-62 NSCLC) | TGI (SK-MEL-5 melanoma) | TGI (OVCAR-4 ovarian) | TGI (UO-31 renal) | TGI (SF-268 CNS) | TGI (A498 renal)

Cc1c2n(c(=O)[nH]c1=O)C1OC(CO)C(O2)C1O (stereo not given)
> 100 µM: TGI (COLO 205 colon) | TGI (SK-OV-3 ovarian) | TGI (HOP-62 NSCLC) | TGI (SK-MEL-5 melanoma) | TGI (OVCAR-4 ovarian) | TGI (UO-31 renal) | TGI (SF-268 CNS) | TGI (SF-295 CNS) | TGI (A498 renal)

N#CN/C(N)=N/CO
> 100 µM: TGI (SK-OV-3 ovarian) | TGI (HOP-62 NSCLC) | TGI (SK-MEL-5 melanoma) | TGI (OVCAR-4 ovarian) | TGI (UO-31 renal) | TGI (SF-268 CNS) | TGI (SF-295 CNS) | TGI (A498 renal)
> 57.8 µM: TGI (COLO 205 colon)

O=c1/c(=C/c2ccccc2[N+](=O)[O-])sc2nnc(-c3ccco3)n12
46.3 µM: TGI (SF-268 CNS)
34.4 µM: TGI (SK-MEL-5 melanoma)
40 µM: TGI (OVCAR-4 ovarian)
55.5 µM: TGI (SF-295 CNS)
96.8 µM: TGI (UO-31 renal)
> 100 µM: TGI (COLO 205 colon) | TGI (SK-OV-3 ovarian) | TGI (A498 renal)
39.2 µM: TGI (HOP-62 NSCLC)

CCOC(=O)c1cnc2c(ccc3[nH]n(C)nc32)c1=O
> 100 µM: TGI (COLO 205 colon) | TGI (SK-OV-3 ovarian) | TGI (HOP-62 NSCLC) | TGI (SK-MEL-5 melanoma) | TGI (UO-31 renal) | TGI (SF-268 CNS) | TGI (SF-295 CNS) | TGI (A498 renal)

NC(=O)/C=C/C(=O)c1c(Cl)cccc1Cl
0.355 µM: TGI (COLO 205 colon)
2.7 µM: TGI (SK-MEL-5 melanoma)
2.74 µM: TGI (A498 renal)
inactive: GI50 (SK-OV-3 ovarian) 2.6 µM | GI50 (HOP-62 NSCLC) 2.63 µM | GI50 (NCI/ADR-RES ovarian) 1.77 µM | GI50 (SK-MEL-5 melanoma) 1.4 µM | GI50 (UO-31 renal) 0.429 µM | GI50 (SF-268 CNS) 1.71 µM | GI50 (SF-295 CNS) 2.54 µM | GI50 (A498 renal) 1.44 µM
active: GI50 (COLO 205 colon) 0.191 µM
6.38 µM: TGI (SK-OV-3 ovarian)
7.35 µM: TGI (SF-295 CNS)
0.859 µM: TGI (UO-31 renal)
3.44 µM: TGI (NCI/ADR-RES ovarian)
3.21 µM: TGI (SF-268 CNS)

CC(=O)CCn1c(=S)sc2ccccc21
> 100 µM: TGI (COLO 205 colon) | TGI (SK-OV-3 ovarian) | TGI (HOP-62 NSCLC) | TGI (NCI/ADR-RES ovarian) | TGI (SK-MEL-5 melanoma) | TGI (OVCAR-4 ovarian) | TGI (UO-31 renal) | TGI (SF-268 CNS) | TGI (SF-295 CNS)

O=C1CCC2(c3ccc(Cl)cc3)Nc3ncccc3N12 (stereo not given)
> 100 µM: TGI (COLO 205 colon) | TGI (SK-OV-3 ovarian) | TGI (HOP-62 NSCLC) | TGI (SK-MEL-5 melanoma) | TGI (OVCAR-4 ovarian) | TGI (UO-31 renal) | TGI (SF-268 CNS) | TGI (SF-295 CNS) | TGI (A498 renal)

Clc1ccc2c(c1)[nH]c1c2nc2ccccn21
> 100 µM and 44.5 µM: TGI (A498 renal)
87.7 µM and 37.1 µM: TGI (SF-268 CNS)
> 100 µM and 55.6 µM: TGI (HOP-62 NSCLC)
53.7 µM and 37.5 µM: TGI (UO-31 renal)
> 100 µM and 30.2 µM: TGI (SK-MEL-5 melanoma)
> 100 µM and 35.4 µM: TGI (SF-295 CNS)
> 100 µM and 63.7 µM: TGI (SK-OV-3 ovarian)
inactive: GI50 (HOP-62 NSCLC) 78 µM and 24.6 µM | GI50 (SK-MEL-5 melanoma) 39.9 µM and 16.4 µM | GI50 (SF-295 CNS) > 100 µM and 15.7 µM

CCC(=O)CC(=O)CCC(=O)Nc1cc(C)ccc1C
> 100 µM: TGI (SK-OV-3 ovarian) | TGI (SK-MEL-5 melanoma) | TGI (UO-31 renal) | TGI (SF-268 CNS) | TGI (SF-295 CNS) | TGI (A498 renal)

CC1(C)CC(=O)C(C=NC(=S)c2ccccc2)=C(O)C1
> 100 µM: TGI (COLO 205 colon) | TGI (SK-OV-3 ovarian) | TGI (HOP-62 NSCLC) | TGI (NCI/ADR-RES ovarian) | TGI (SK-MEL-5 melanoma) | TGI (OVCAR-4 ovarian) | TGI (UO-31 renal) | TGI (SF-268 CNS) | TGI (SF-295 CNS)

Cc1cc(Nc2ccc(NC(=O)c3ccc(Nc4ccnc5ccccc45)cc3)cc2)nc(N)n1
39.6 µM: TGI (SF-295 CNS)
49.9 µM: TGI (SK-MEL-5 melanoma)
> 100 µM: TGI (NCI/ADR-RES ovarian) | TGI (UO-31 renal) | TGI (A498 renal)
inactive: GI50 (SK-OV-3 ovarian) 7.15 µM | GI50 (NCI/ADR-RES ovarian) > 100 µM | GI50 (SK-MEL-5 melanoma) 5.23 µM | GI50 (UO-31 renal) 50.9 µM | GI50 (SF-295 CNS) 4.81 µM | GI50 (A498 renal) 5.13 µM
54.8 µM: TGI (SK-OV-3 ovarian)

CN1CC(=O)N2Cc3ccccc3-n3cccc3C2C1 (stereo not given)
> 100 µM: TGI (COLO 205 colon) | TGI (SK-OV-3 ovarian) | TGI (HOP-62 NSCLC) | TGI (SK-MEL-5 melanoma) | TGI (OVCAR-4 ovarian) | TGI (UO-31 renal) | TGI (SF-268 CNS) | TGI (SF-295 CNS) | TGI (A498 renal)

CCCCOC(=O)CNC(=O)OC/C=C/C#CC#C/C=C/COC(=O)NCC(=O)OCCCC
inactive: GI50 (COLO 205 colon) > 100 µM | GI50 (SK-OV-3 ovarian) > 100 µM | GI50 (HOP-62 NSCLC) > 100 µM | GI50 (SK-MEL-5 melanoma) > 100 µM | GI50 (OVCAR-4 ovarian) > 100 µM | GI50 (UO-31 renal) > 100 µM | GI50 (SF-268 CNS) > 100 µM | GI50 (SF-295 CNS) > 100 µM | GI50 (A498 renal) > 100 µM
> 100 µM: TGI (COLO 205 colon) | TGI (SK-OV-3 ovarian) | TGI (HOP-62 NSCLC) | TGI (SK-MEL-5 melanoma) | TGI (OVCAR-4 ovarian) | TGI (UO-31 renal) | TGI (SF-268 CNS) | TGI (SF-295 CNS) | TGI (A498 renal)

CC(=O)CCn1ncc(Cl)c(Cl)c1=O
21.9 µM: TGI (OVCAR-4 ovarian)
33.5 µM: TGI (SK-MEL-5 melanoma)
42.9 µM: TGI (A498 renal)
35.4 µM: TGI (HOP-62 NSCLC)
34.6 µM: TGI (UO-31 renal)
33.6 µM: TGI (SF-295 CNS)
28 µM: TGI (SF-268 CNS)

Nc1nc(Cl)cc(NCCCCCCCCNc2cc(Cl)nc(N)n2)n1
> 100 µM: TGI (COLO 205 colon) | TGI (SK-OV-3 ovarian) | TGI (HOP-62 NSCLC) | TGI (OVCAR-4 ovarian) | TGI (UO-31 renal) | TGI (SF-268 CNS)
92.1 µM: TGI (SF-295 CNS)
13 µM: TGI (SK-MEL-5 melanoma)
